Holding throughout (conditions): individual compound of natural origin
Assay [1] is described as follows: Determination of antioxidant activity (DPPH method). The assay is classed as biochemical. The protocol:
DPPH (1,1-diphenyl-2-picrylhydrazyl) is a chromogenic radical and thus, can be used to directly confirm the radical scavenging activity of the samples. The samples were dissolved in 4 ml of distilled water or solvent (methanol) and then, mixed well with 1 ml of 100 μM DPPH. Subsequently, the samples were incubated at room temperature for 30 minutes. The absorbance of the remaining DPPH was measured at 517 nm. As a blank of the present experiment, distilled water or solvent was used, and as a control, an experimental group composed only of DPPH in distilled water or solvent without the sample was used. Further, vitamin C was used as a positive control.
A general note: The DPPH test is a chemical assay of radical scavenging.

The test system of assay [2] is Human keratinocytes. The assay is described as follows: Wound-healing effect: cell migration assay. Also on record: key: −: No effect; +: Weak effect; ++: Moderate effect; +++: Strong effect; ++++: Very strong effect. The assay is classed as cell-based. The protocol:
The wound-healing effect was determined by a cell migration assay. Human keratinocytes were confluently cultured in keratinocyte-SFM media and then, treated with […] mitomycin C (Sigma Chemical) to inhibit cell growth for the measurement of cell migration. The confluent cell monolayer was scratched using a yellow pipette tip to create a cell-free region and then, the cell debris was washed with PBS. After the treatment, the samples were cultured in keratinocyte-SFM media for 48 hrs to observe the effect on cell migration (Cecile A et. al., Molecular Biology of the Cell, 2002; 13: 3845-3858).

Assay [3] relates to NF-kB luciferase activity. The assay can be described thus: Anti-inflammatory effect: inhibition test of NF-kB luciferase activity (TNF-alpha treated fibroblasts). The assay is classed as cell-based, Human fibroblasts and mouse fibroblasts, NIH3T3. Set-up: key: −: No effect; +: Weak effect; ++: Moderate effect; +++: Strong effect; ++++: Very strong effect. As to the method:
The anti-inflammatory effect was determined by the inhibition test of NF-kB luciferase activity. Human fibroblasts and mouse fibroblasts, NIH3T3 were transfected with NF-kB reporter DNA using SuperFect to induce transformation. At 24 hrs after transformation, the samples were treated with TNF-alpha (10 ng/ml). After 16 hrs, the cells were collected, and luminescence measurements were made […] using a Luminometer (Berthold, Germany).

Assay [4] is described as follows: Moisturizing effect: transepidermal water loss (Tewameter TM210). The assay is classed as in vivo, human subjects. Set-up: key: −: No effect; +: Weak effect; ++: Moderate effect; +++: Strong effect; ++++: Very strong effect. As to the method: The transepidermal water loss was measured using a Tewameter TM210 (Germany). The measurement was performed twice, before the treatment and at 2 weeks after the treatment, and the results were statistically compared. The measurement was performed in a temperature/humidity controlled room (no air flow, no light, at a temperature of 22° C. and relative humidity of 40%). The measurement was performed in the abdomen of thirty subjects.

`COC1=C(OC)C(=O)C(C/C=C(\C)CC/C=C(\C)CC/C=C(\C)CC/C=C(\C)CC/C=C(\C)CC/C=C(\C)CC/C=C(\C)CC/C=C(\C)CC/C=C(\C)CCC=C(C)C)=C(C)C1=O` [Coenzyme Q10]: the Antioxidant effect entry in assay [1] is recorded as “+”. In addition, the Wound-healing effect entry in assay [2] is “+”. Also, the Anti-inflammatory effect entry in assay [3] is recorded as “−”. Also, the Moisturizing effect result in assay [4] is “+”.
For the compound `CCCCCCCC/C=C\CCCCCCCC(=O)O` [Oleic acid], the Antioxidant effect entry in assay [1] was “+”. For the same compound, the Wound-healing effect entry in assay [2] is “+”. In addition, in assay [3], the Anti-inflammatory effect result is reported as “+”. Also, the Moisturizing effect result in assay [4] is “+”.
On to `O=P(O)(O)O[C@H]1[C@H](OP(=O)(O)O)[C@@H](OP(=O)(O)O)[C@H](OP(=O)(O)O)[C@@H](OP(=O)(O)O)[C@H]1OP(=O)(O)O` [Phytic acid], for which the Antioxidant effect entry in assay [1] was “+”. In addition, the Wound-healing effect result in assay [2] is given as “++”. In assay [3], the Anti-inflammatory effect result was “+”. Moreover, in assay [4], the Moisturizing effect entry is reported as “−”.
As to `Cc1cc(O)c2c(c1)C(=O)c1cc(O)cc(O)c1C2=O` [Emodin], the Antioxidant effect result in assay [1] is “++”. Further, in assay [2], the Wound-healing effect entry is given as “++”. Further, the Anti-inflammatory effect entry in assay [3] is on record as “++”. Besides, the Moisturizing effect result in assay [4] is listed as “++”.
As to `CC1(C)[C@@H](O[C@H]2O[C@H](C(=O)O)[C@@H](O)[C@H](O)[C@H]2O[C@@H]2O[C@H](C(=O)O)[C@@H](O)[C@H](O)[C@H]2O)CC[C@]2(C)[C@H]3C(=O)C=C4[C@@H]5C[C@@](C)(C(=O)O)CC[C@]5(C)CC[C@@]4(C)[C@]3(C)CC[C@@H]12` [Glycyrrhizin], the Antioxidant effect result in assay [1] is “++”. Further, in assay [2], the Wound-healing effect entry is on record as “++”. Moreover, the Anti-inflammatory effect result in assay [3] is “++”. Also, the Moisturizing effect entry in assay [4] was “++”.
For the compound `CC(C)=CCC/C(C)=C/CO` [Geraniol], in assay [2], the Wound-healing effect result is listed as “+”. Further, in assay [3], the Anti-inflammatory effect entry is recorded as “++”. Also, the Moisturizing effect result in assay [4] is on record as “−”.
In the case of `O=C1O[C@H]([C@@H](O)CO)C(O)=C1O` [Ascorbic acid], in assay [1], the Antioxidant effect result is on record as “+”. In assay [2], the Wound-healing effect result is “++”. In addition, the Anti-inflammatory effect entry in assay [3] is given as “+”. The Moisturizing effect entry in assay [4] was “−”.
For the compound `O=c1c(O)c(-c2ccc(O)c(O)c2)oc2cc(O)cc(O)c12` [Quercetin], the Antioxidant effect result in assay [1] is “++”. Moreover, in assay [2], the Wound-healing effect result is listed as “++”. In addition, the Anti-inflammatory effect result in assay [3] was “++”. Besides, the Moisturizing effect entry in assay [4] is “++”.
`CCCCCCCC/C=C/CCCCCCCC(=O)O` [Elaidic acid]: the Antioxidant effect result in assay [1] is given as “+”. In assay [2], the Wound-healing effect result was “+”. In assay [3], the Anti-inflammatory effect result is given as “+”. In addition, in assay [4], the Moisturizing effect result is listed as “−”.
With `C=CCc1ccc(O)c(-c2ccc(O)c(CC=C)c2)c1` [Honokiol], the Antioxidant effect result in assay [1] was “+”. For the same compound, the Wound-healing effect entry in assay [2] is given as “++”. The Anti-inflammatory effect result in assay [3] is reported as “+”. The Moisturizing effect result in assay [4] was “−”.
As to `O=C(O)c1cc(O)c(O)c(O)c1` [Garlic acid], in assay [1], the Antioxidant effect entry is listed as “+”. Besides, the Wound-healing effect entry in assay [2] is recorded as “+”. Also, the Anti-inflammatory effect result in assay [3] was “+”. Also, the Moisturizing effect entry in assay [4] is reported as “−”.
Consider `Cc1c(C)c2c(c(C)c1O)CC[C@@](C)(CCC[C@H](C)CCC[C@H](C)CCCC(C)C)O2` [alpha-Tocopherol], for which the Antioxidant effect entry in assay [1] was “+”. In addition, the Wound-healing effect result in assay [2] is reported as “++”. In addition, the Anti-inflammatory effect entry in assay [3] is listed as “+”.
Turning to `C[C@H]1[C@H](C)CC[C@]2(C(=O)O)CC[C@]3(C)C(=CC[C@@H]4[C@@]5(C)C[C@@H](O)[C@H](O)[C@@](C)(CO)[C@@H]5[C@H](O)C[C@]43C)[C@H]12` [Madecassic acid], the Wound-healing effect entry in assay [2] was “++”. The Anti-inflammatory effect entry in assay [3] is on record as “++”. For the same compound, the Moisturizing effect result in assay [4] was “++”.
With `O=C(O)/C=C/c1ccc(O)c(O)c1` [Caffeic acid], in assay [1], the Antioxidant effect result was “+”. The Wound-healing effect result in assay [2] is recorded as “+”. The Anti-inflammatory effect result in assay [3] is on record as “+”. Also, the Moisturizing effect result in assay [4] is “+”.
With `C[C@@H]1O[C@@H](OC[C@H]2O[C@@H](Oc3c(-c4ccc(O)c(O)c4)oc4cc(O)cc(O)c4c3=O)[C@H](O)[C@@H](O)[C@@H]2O)[C@H](O)[C@H](O)[C@H]1O` [Rutin], the Wound-healing effect entry in assay [2] is recorded as “+”. In assay [3], the Anti-inflammatory effect entry is “+”. In addition, in assay [4], the Moisturizing effect entry is reported as “+”.
On to `OCc1c[nH]c2ccccc12` [Indole-3-carbinol], for which, in assay [1], the Antioxidant effect entry is given as “+”. The Wound-healing effect result in assay [2] is on record as “+”. The Anti-inflammatory effect entry in assay [3] is given as “+”. Also, in assay [4], the Moisturizing effect result is reported as “−”.
Regarding `Oc1cc(O)cc(/C=C/c2ccccc2)c1` [Pinosylvin], the Antioxidant effect entry in assay [1] is listed as “+”. For the same compound, the Wound-healing effect result in assay [2] is “++”. The Anti-inflammatory effect entry in assay [3] is recorded as “+”. In addition, the Moisturizing effect entry in assay [4] is recorded as “−”.
`O=c1cc(-c2ccccc2)oc2cc(O)c(O)c(O)c12` [Baicalein]: the Antioxidant effect entry in assay [1] is “++”. The Wound-healing effect result in assay [2] is listed as “++”. Besides, the Anti-inflammatory effect entry in assay [3] is listed as “++”. For the same compound, the Moisturizing effect result in assay [4] is “++”.
With `O=C(/C=C/c1ccc(O)c(O)c1)O[C@H](Cc1ccc(O)c(O)c1)C(=O)O` [Rosmarinic acid], in assay [1], the Antioxidant effect entry is listed as “++”. Further, the Wound-healing effect result in assay [2] was “++”. Also, the Anti-inflammatory effect result in assay [3] is “++”. The Moisturizing effect result in assay [4] is “++”.
In the case of `O=c1ccc2ccccc2o1` [Coumarin], the Antioxidant effect entry in assay [1] was “+”. In addition, the Wound-healing effect result in assay [2] is given as “+”. For the same compound, the Anti-inflammatory effect entry in assay [3] is given as “++”. For the same compound, the Moisturizing effect result in assay [4] was “−”.
Take `C=CCc1ccc(O)c(-c2cc(CC=C)ccc2O)c1` [Magnolol]: the Antioxidant effect result in assay [1] is reported as “+”. Moreover, the Wound-healing effect entry in assay [2] is given as “+”. The Anti-inflammatory effect result in assay [3] was “+”. Moreover, the Moisturizing effect entry in assay [4] was “−”.
Take `OCCc1ccc(O)c(O)c1` [Hydroxytyrosol]: the Wound-healing effect entry in assay [2] was “+”. Besides, in assay [3], the Anti-inflammatory effect entry is recorded as “+”. For the same compound, the Moisturizing effect result in assay [4] is reported as “+”.
Consider `CCc1ccc(C)c2ccc(C)c-2c1` [Chamazulene], for which the Antioxidant effect result in assay [1] was “++”. The Wound-healing effect entry in assay [2] was “++”. Also, in assay [3], the Anti-inflammatory effect result was “++”. Besides, in assay [4], the Moisturizing effect result is “++”.
For `CC(C)=CCC[C@](C)(O[C@@H]1O[C@H](CO[C@@H]2O[C@H](CO)[C@@H](O)[C@H](O)[C@H]2O)[C@@H](O)[C@H](O)[C@H]1O)[C@H]1CC[C@]2(C)[C@@H]1[C@H](O)C[C@@H]1[C@@]3(C)CC[C@H](O[C@@H]4O[C@H](CO)[C@@H](O)[C@H](O)[C@H]4O[C@@H]4O[C@H](CO)[C@@H](O)[C@H](O)[C@H]4O)C(C)(C)[C@@H]3CC[C@]12C` [Ginsenoside Rb1], in assay [1], the Antioxidant effect entry was “−”. Besides, the Wound-healing effect entry in assay [2] was “+”. In addition, the Anti-inflammatory effect result in assay [3] is “+”. In addition, the Moisturizing effect entry in assay [4] is listed as “+”.
On to `CC/C=C\C/C=C\C/C=C\CCCCCCCC(=O)O` [Linolenic acid], for which the Wound-healing effect result in assay [2] was “++”. The Anti-inflammatory effect entry in assay [3] was “++”. The Moisturizing effect result in assay [4] is “++”.
In the case of `C[C@@H]1CC[C@@]2(OC1)O[C@H]1C[C@H]3[C@@H]4CC=C5C[C@@H](O)CC[C@]5(C)[C@H]4CC[C@]3(C)[C@H]1[C@@H]2C` [Diosgenin], the Antioxidant effect entry in assay [1] is “−”. In addition, the Wound-healing effect entry in assay [2] was “++”. Further, the Anti-inflammatory effect result in assay [3] is reported as “+”. Moreover, in assay [4], the Moisturizing effect entry is recorded as “+”.
Take `CC1=C(O)C(=O)C(C)O1` (stereo not shown) [Furaneol]: the Wound-healing effect entry in assay [2] is “+”. For the same compound, the Anti-inflammatory effect entry in assay [3] is “+”. Besides, in assay [4], the Moisturizing effect entry was “+”.
Regarding `CC1=C(/C=C/C(C)=C/C=C/C(C)=C/CO)C(C)(C)CCC1` [Retinol], the Antioxidant effect entry in assay [1] is “+”. In addition, the Wound-healing effect entry in assay [2] is on record as “+”. The Anti-inflammatory effect result in assay [3] is listed as “+”. The Moisturizing effect result in assay [4] is “−”.
For the compound `O=C(O)CCCCC1CCSS1` (stereo not drawn) [alpha-lipoic acid], in assay [1], the Antioxidant effect result is listed as “+”. In addition, the Wound-healing effect result in assay [2] is listed as “++”. Also, the Anti-inflammatory effect result in assay [3] is given as “+”. In addition, the Moisturizing effect result in assay [4] is given as “−”.

The values are drawn from patent publication US7994141B2, “Compositions comprising compounds of natural origin for damaged skin” (Biospectrum, Inc., priority 2006, dated 2011).
